{
  "source": "ChEMBL document CHEMBL4406913",
  "about": "“INCB050465 (Parsaclisib), a Novel Next-Generation Inhibitor of Phosphoinositide 3-Kinase Delta (PI3Kδ)” (ACS Med Chem Lett, 2019)",
  "key": {"Pfeiffer [1]": {"test_system": "Pfeiffer", "assay": "Cytotoxicity against human Pfeiffer cells assessed as reduction in cell viability incubated for 4 days by [3H]-thymidine incorporation based liquid scintillation counter method", "assay_type": "functional"}, "Pfeiffer [2]": {"test_system": "Pfeiffer", "assay": "Cytotoxicity against human Pfeiffer cells assessed as reduction in protein binding adjusted cell viability incubated for 4 days by [3H]-thymidine incorporation based liquid scintillation counter method", "assay_type": "functional"}, "[3]": {"assay": "Fractional unbound in human plasma", "assay_type": "ADME, cell-free"}, "[4]": {"molecular_target": "T1, Phosphatidylinositol 4,5-bisphosphate 3-kinase catalytic subunit delta isoform (Homo sapiens, UniProt O00329)", "T1 sequence (O00329 whole entry)": "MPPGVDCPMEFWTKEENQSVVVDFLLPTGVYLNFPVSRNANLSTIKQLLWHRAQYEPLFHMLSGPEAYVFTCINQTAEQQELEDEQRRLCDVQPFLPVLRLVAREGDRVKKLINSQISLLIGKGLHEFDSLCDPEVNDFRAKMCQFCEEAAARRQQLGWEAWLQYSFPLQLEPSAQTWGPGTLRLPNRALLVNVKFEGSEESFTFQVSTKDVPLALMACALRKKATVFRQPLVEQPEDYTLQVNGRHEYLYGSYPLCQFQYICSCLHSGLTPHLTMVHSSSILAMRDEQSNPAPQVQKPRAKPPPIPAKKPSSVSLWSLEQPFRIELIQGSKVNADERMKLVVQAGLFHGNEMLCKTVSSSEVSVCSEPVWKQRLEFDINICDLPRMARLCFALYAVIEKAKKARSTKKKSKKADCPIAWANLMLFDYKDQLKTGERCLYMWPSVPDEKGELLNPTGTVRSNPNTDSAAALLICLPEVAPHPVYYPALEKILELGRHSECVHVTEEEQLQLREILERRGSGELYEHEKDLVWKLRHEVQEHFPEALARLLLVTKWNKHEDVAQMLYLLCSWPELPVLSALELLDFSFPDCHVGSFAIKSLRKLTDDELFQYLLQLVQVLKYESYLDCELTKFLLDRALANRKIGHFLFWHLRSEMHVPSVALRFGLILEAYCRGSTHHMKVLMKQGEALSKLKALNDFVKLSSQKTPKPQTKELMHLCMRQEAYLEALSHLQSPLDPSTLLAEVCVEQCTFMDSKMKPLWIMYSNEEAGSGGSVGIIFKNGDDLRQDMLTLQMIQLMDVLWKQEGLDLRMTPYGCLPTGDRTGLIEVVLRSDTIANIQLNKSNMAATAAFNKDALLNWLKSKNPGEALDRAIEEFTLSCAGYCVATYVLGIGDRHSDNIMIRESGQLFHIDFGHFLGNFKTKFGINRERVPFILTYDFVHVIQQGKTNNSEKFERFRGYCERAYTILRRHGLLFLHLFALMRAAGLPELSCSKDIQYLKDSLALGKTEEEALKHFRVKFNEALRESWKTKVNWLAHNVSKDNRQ", "assay": "Inhibition of PI3Kdelta in human whole blood assessed as reduction in anti-IgE antibody-induced CD63 expression by flow cast kit method", "assay_type": "tissue-based"}, "[5]": {"assay": "Intrinsic clearance in human liver microsomes at 1 uM measured upto 30 mins by LC/MS analysis", "assay_type": "ADME, Microsome", "settings": "read-out: CLH (converted)"}, "[6]": {"assay": "Solubility of the compound at pH 7.4", "assay_type": "physicochemical", "settings": "buffer"}, "[7]": {"molecular_target": "Voltage-gated inwardly rectifying potassium channel KCNH2 (Homo sapiens, UniProt Q12809)", "sequence (Q12809 whole entry)": "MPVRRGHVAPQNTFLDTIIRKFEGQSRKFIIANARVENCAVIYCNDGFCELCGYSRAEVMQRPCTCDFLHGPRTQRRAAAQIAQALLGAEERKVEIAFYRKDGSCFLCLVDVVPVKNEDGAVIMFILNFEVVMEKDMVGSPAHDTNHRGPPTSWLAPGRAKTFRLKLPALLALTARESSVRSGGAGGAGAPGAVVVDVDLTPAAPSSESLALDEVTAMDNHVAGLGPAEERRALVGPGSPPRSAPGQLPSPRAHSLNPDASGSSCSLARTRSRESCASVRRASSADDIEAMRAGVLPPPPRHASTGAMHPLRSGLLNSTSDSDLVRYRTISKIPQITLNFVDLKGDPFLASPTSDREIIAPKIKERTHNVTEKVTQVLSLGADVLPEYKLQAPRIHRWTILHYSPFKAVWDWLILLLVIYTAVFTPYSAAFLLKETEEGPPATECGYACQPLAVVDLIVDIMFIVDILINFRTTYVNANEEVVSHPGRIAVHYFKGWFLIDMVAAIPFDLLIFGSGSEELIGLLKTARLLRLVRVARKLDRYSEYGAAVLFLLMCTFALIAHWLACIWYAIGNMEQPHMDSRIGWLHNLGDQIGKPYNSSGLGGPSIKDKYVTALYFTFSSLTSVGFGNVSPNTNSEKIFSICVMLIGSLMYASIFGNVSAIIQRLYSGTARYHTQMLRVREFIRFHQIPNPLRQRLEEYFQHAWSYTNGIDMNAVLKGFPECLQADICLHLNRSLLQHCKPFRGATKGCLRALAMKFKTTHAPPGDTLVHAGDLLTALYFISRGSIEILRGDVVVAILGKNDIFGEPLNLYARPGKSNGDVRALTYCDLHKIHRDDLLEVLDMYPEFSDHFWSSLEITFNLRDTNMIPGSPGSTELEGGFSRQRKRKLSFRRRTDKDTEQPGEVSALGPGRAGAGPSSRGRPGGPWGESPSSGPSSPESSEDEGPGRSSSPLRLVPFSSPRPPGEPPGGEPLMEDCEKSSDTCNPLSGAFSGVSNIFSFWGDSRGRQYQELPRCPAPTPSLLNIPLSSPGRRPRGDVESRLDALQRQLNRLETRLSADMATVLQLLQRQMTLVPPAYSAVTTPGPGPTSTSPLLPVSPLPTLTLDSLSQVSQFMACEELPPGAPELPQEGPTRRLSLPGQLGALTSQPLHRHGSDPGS", "assay": "Inhibition of human ERG expressed in HEK293 cells by voltage patch clamp assay", "assay_type": "cell-based"}, "[8]": {"assay": "Clearance in rat at 4 mg/kg, iv measured for 24 hrs by LC-MS/MS analysis", "assay_type": "ADME, organism-based", "settings": "in vivo"}, "[9]": {"assay": "Terminal half life in rat at 4 mg/kg, iv measured for 24 hrs by LC-MS/MS analysis", "assay_type": "ADME, organism-based", "settings": "in vivo, read-out: beta t1/2 (converted)"}, "[10]": {"assay": "Oral bioavailability in rat at 4 mg/kg measured for 24 hrs by LC-MS/MS analysis", "assay_type": "ADME, organism-based", "settings": "in vivo"}, "[11]": {"assay": "Clearance in Beagle dog at 2 mg/kg, iv measured for 24 hrs by LC-MS/MS analysis", "assay_type": "ADME, organism-based, Canis lupus familiaris", "settings": "in vivo"}, "[12]": {"assay": "Oral bioavailability in Beagle dog at 4 mg/kg measured for 24 hrs by LC-MS/MS analysis", "assay_type": "ADME, organism-based, Canis lupus familiaris", "settings": "in vivo"}, "[13]": {"assay": "Volume of distribution at steady state in cynomolgus monkey at 2 mg/kg, iv measured for 24 hrs by LC-MS/MS analysis", "assay_type": "ADME, organism-based, Macaca fascicularis", "settings": "in vivo, read-out: Vdss"}, "[14]": {"assay": "Terminal half life in cynomolgus monkey at 2 mg/kg, iv measured for 24 hrs by LC-MS/MS analysis", "assay_type": "ADME, organism-based, Macaca fascicularis", "settings": "in vivo, read-out: beta t1/2 (converted)"}, "[15]": {"assay": "Tmax in cynomolgus monkey at 4 mg/kg, po measured for 24 hrs by LC-MS/MS analysis", "assay_type": "ADME, organism-based, Macaca fascicularis", "settings": "in vivo"}, "[16]": {"assay": "Oral bioavailability in cynomolgus monkey at 4 mg/kg measured for 24 hrs by LC-MS/MS analysis", "assay_type": "ADME, organism-based, Macaca fascicularis", "settings": "in vivo"}, "Pfeiffer [17]": {"test_system": "Pfeiffer", "assay": "Antitumor activity against human Pfeiffer cells xenografted in SCID mouse assessed as reduction in tumor growth at 1 mg/kg, po bid for 14 days measured 2-3 times weekly by digital caliper method", "assay_type": "functional, organism-based"}, "Pfeiffer [18]": {"test_system": "Pfeiffer", "assay": "In vivo inhibition of PI3Kdelta in human Pfeiffer cells xenografted in SCID mouse assessed as reduction in AKT phosphorylation at Ser473 residue in tumor lysates at 1 mg/kg, po bid for 14 days measured at 4 hrs post last dose by Western blot analysis", "assay_type": "functional, organism-based", "settings": "Neoplasm, Lysate"}, "[19]": {"assay": "Hepatotoxicity in rat measured on day 28", "assay_type": "toxicity", "settings": "in vivo"}, "Cytochrome P450 2B6": {"molecular_target": "T2, Cytochrome P450 2B6 (Homo sapiens, UniProt P20813)", "T2 sequence (P20813 whole entry)": "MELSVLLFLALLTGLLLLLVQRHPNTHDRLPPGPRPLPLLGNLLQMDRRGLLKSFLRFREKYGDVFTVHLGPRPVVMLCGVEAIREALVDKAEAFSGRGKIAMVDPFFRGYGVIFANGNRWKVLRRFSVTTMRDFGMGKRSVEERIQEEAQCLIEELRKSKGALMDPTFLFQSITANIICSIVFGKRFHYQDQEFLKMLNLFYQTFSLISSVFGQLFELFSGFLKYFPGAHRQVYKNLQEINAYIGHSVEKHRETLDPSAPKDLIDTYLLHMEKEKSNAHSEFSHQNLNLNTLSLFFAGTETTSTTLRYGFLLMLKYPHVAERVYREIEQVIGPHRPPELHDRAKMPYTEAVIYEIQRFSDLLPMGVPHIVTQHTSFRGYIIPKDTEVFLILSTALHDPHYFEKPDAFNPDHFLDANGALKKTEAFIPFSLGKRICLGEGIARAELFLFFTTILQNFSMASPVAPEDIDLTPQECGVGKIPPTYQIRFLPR", "assay": "Inhibition of CYP2B6 in human liver microsomes at 0.1 to 25 uM using bupropion as substrate by LC/MS analysis", "assay_type": "ADME"}, "Cytochrome P450 2C9": {"molecular_target": "Cytochrome P450 2C9 (Homo sapiens, UniProt P11712)", "sequence (P11712 whole entry)": "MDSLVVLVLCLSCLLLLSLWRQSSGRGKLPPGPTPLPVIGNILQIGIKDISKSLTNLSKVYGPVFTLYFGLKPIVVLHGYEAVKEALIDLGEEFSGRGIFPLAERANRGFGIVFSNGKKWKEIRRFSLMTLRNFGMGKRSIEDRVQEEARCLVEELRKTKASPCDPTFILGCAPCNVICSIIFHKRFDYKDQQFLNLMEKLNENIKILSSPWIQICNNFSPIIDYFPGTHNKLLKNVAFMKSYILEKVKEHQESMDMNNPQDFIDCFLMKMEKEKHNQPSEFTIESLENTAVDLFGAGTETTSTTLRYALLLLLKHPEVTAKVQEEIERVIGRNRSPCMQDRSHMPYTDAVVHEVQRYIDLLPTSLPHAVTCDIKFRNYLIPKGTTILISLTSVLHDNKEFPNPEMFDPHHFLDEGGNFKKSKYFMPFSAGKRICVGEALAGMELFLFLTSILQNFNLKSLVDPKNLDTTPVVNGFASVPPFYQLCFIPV", "assay": "Inhibition of CYP2C9 in human liver microsomes at 0.1 to 25 uM using diclofenac as substrate by LC/MS analysis", "assay_type": "ADME"}, "Cytochrome P450 2D6": {"molecular_target": "Cytochrome P450 2D6 (Homo sapiens, UniProt P10635)", "sequence (P10635 whole entry)": "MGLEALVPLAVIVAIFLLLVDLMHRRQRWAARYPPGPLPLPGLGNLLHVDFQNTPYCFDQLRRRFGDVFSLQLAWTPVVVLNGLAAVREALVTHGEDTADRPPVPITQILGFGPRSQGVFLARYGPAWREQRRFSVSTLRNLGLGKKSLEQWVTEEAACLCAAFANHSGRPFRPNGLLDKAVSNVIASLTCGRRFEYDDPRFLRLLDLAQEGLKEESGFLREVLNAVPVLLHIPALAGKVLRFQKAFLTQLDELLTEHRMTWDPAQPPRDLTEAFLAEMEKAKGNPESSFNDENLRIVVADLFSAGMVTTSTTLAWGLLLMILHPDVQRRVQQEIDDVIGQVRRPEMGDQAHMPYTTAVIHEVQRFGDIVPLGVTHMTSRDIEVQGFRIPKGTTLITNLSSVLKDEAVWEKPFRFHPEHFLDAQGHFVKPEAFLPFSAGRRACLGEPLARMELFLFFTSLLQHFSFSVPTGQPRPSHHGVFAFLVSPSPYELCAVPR", "assay": "Inhibition of CYP2D6 in human liver microsomes using bufuralol as substrate by LC/MS analysis", "assay_type": "ADME"}, "Cytochrome P450 3A4": {"molecular_target": "Cytochrome P450 3A4 (Homo sapiens, UniProt P08684)", "sequence (P08684 whole entry)": "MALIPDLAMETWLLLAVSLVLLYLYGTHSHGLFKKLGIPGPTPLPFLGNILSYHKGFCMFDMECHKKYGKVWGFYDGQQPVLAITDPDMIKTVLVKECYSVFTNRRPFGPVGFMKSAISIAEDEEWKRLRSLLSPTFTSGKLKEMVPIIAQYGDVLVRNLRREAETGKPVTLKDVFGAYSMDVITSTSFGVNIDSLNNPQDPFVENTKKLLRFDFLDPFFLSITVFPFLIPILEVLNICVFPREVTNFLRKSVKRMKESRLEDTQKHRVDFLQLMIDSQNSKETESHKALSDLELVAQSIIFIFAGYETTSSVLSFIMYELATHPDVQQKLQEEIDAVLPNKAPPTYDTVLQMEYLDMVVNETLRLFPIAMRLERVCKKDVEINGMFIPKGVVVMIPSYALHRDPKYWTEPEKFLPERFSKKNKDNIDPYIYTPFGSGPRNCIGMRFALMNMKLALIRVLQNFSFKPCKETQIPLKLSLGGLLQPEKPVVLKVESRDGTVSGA", "assay": "Inhibition of CYP3A4 in human liver microsomes at 0.1 to 25 uM using midazolam as substrate by LC/MS analysis", "assay_type": "ADME"}},
  "note": "Activity calls are given as the source filed them. No cut-off for these calls is given here.",
  "data": [
    {"smiles": "CCOc1c([C@H](C)n2nc(C)c3c(N)ncnc32)cc(Cl)c(F)c1[C@@H]1CNC(=O)C1", "note": "[PARSACLISIB]", "values": [
      {"measurement": "IC50", "setting": "Pfeiffer [1]", "value": 2.5, "unit": "nM"},
      {"measurement": "IC50", "setting": "Pfeiffer [2]", "value": 4.2, "unit": "nM"},
      {"measurement": "fraction unbound", "setting": "[3]", "value": 0.058},
      {"measurement": "IC50", "setting": "[4]", "value": 2, "unit": "nM"},
      {"measurement": "CLint scaled at 1 µM", "setting": "[5]", "value": 11.7, "unit": "mL/min/kg"},
      {"measurement": "solubility", "setting": "[6]", "value": 210, "unit": "µg/mL"},
      {"measurement": "IC50", "setting": "[7]", "value": 75000, "unit": "nM"},
      {"measurement": "CL", "setting": "[8]", "value": 26, "unit": "%"},
      {"measurement": "half-life", "setting": "[9]", "value": 4, "unit": "h"},
      {"measurement": "bioavailability", "setting": "[10]", "value": 74, "unit": "%"},
      {"measurement": "CL", "setting": "[11]", "value": 2, "unit": "%"},
      {"measurement": "bioavailability", "setting": "[12]", "value": 100, "unit": "%"},
      {"measurement": "Vd", "setting": "[13]", "value": 0.72, "unit": "L/kg"},
      {"measurement": "half-life", "setting": "[14]", "value": 7.3, "unit": "h"},
      {"measurement": "Tmax", "setting": "[15]", "value": 2.5, "unit": "h"},
      {"measurement": "bioavailability", "setting": "[16]", "value": 79, "unit": "%"},
      {"measurement": "inhibition", "setting": "Pfeiffer [17]", "value": "Active"},
      {"measurement": "inhibition", "setting": "Pfeiffer [18]", "value": "Active"},
      {"measurement": "Activity", "setting": "[19]", "value": "Non-Toxic"},
      {"measurement": "inhibition (INH)", "setting": "Cytochrome P450 2B6", "value": "Not Active"},
      {"measurement": "inhibition (INH)", "setting": "Cytochrome P450 2C9", "value": "Not Active"},
      {"measurement": "inhibition (INH)", "setting": "Cytochrome P450 2D6", "value": "Not Active"},
      {"measurement": "inhibition (INH)", "setting": "Cytochrome P450 3A4", "value": "Not Active"}
    ]}
  ]
}
